Test results taken from patent publication US10072001B2, “Tank-binding kinase inhibitor compounds” (Gilead Sciences, Inc., priority 2014, dated 2018).

Key:
TBK1 = TBK1 (Homo sapiens (Human), UniProt Q9UHD2); test: TR-FRET kinase assay, TBK1; settings: read-out: TBK1-IC50; full length recombinant TBK1 2.5 nM, 2x Km ATP, 1 μM peptide, 240 min at 25° C.; geometric mean of minimum four determinations
TBK1, sequence (Q9UHD2 whole entry): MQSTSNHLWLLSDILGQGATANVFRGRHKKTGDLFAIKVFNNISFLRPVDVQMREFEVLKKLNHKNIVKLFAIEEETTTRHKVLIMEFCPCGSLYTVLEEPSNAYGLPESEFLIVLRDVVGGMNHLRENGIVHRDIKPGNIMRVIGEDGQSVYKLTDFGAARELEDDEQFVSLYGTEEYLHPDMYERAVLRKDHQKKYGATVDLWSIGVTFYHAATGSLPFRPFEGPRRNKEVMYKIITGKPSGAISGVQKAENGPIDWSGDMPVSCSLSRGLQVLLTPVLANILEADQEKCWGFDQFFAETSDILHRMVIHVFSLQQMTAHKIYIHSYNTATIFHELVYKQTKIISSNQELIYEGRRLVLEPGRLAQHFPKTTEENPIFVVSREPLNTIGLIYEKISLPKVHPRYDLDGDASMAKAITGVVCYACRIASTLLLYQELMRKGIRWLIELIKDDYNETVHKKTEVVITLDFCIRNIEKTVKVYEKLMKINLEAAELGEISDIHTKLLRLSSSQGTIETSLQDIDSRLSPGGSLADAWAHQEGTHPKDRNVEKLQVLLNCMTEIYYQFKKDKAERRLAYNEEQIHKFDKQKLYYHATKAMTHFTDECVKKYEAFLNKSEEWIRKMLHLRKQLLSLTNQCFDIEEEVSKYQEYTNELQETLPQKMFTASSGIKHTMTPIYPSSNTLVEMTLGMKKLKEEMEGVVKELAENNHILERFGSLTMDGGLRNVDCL

IKKε = IKKε (Homo sapiens (Human), UniProt Q14164); test: TR-FRET kinase assay, IKKε; assay type: biochemical; settings: full length recombinant IKKε 0.3 nM, 2x Km ATP, 1 μM peptide, 240 min at 25° C.; geometric mean of minimum four determinations
IKKε, sequence (Q14164 whole entry): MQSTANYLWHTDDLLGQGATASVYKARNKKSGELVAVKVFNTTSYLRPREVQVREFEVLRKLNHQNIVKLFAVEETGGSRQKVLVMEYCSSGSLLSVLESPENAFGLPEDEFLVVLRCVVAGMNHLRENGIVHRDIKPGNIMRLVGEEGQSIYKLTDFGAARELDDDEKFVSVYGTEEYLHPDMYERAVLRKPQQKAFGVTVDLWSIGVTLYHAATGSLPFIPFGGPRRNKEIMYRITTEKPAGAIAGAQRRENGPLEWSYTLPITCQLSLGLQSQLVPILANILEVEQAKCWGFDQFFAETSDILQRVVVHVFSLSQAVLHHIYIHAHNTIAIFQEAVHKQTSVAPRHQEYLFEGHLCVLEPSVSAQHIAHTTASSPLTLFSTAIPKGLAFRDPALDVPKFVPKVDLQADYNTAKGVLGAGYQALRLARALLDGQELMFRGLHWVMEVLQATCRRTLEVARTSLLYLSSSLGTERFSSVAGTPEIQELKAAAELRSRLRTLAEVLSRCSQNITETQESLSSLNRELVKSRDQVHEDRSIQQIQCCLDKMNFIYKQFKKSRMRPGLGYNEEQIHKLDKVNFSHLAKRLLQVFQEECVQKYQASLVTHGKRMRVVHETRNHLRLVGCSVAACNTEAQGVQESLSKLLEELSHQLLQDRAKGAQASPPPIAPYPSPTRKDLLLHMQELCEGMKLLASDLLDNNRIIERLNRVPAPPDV
From the text: Biological Assay for TBK1 and IKKs:

SMILES	IC50 (TBK1) [nM]	IC50 (IKKε) [nM]
CC(C)(C)OC(=O)N1CC[C@H](Oc2ccc(-c3ccnc4[nH]c(-c5ccc(N6CCOCC6)cc5)cc34)cc2C#N)C1 [Example 25, (S)-tert-butyl 3-(2-cyano-4-(2-(4-morpholinophenyl)-1H-pyrrolo[2,3-b]pyridin-4-yl)phenoxy)pyrrolidine-1-carboxylate]	115	306
N#Cc1cc(-c2ccnc3[nH]c(-c4ccc(N5CCOCC5)cc4)cc23)ncc1OC1CCOCC1 [Example 26, 2-(2-(4-morpholinophenyl)-1H-pyrrolo[2,3-b]pyridin-4-yl)-5-((tetrahydro-2H-pyran-4-yl)oxy)isonicotinonitrile]	3.43	6.84
CC(O)C(=O)N1CC[C@@H](Oc2ccc(-c3ccnc4[nH]c(-c5ccc(N6CCOCC6)cc5)cc34)cc2C#N)C1 (stereo partly drawn) [Example 27, 2-(((3R)-1-(2-hydroxypropanoyl)pyrrolidin-3-yl)oxy)-5-(2-(4-morpholinophenyl)-1H-pyrrolo[2,3-b]pyridin-4-yl)benzonitrile]	6.54	13.4
N#Cc1cc(-c2ccnc3[nH]c(-c4ccc(N5CCOCC5)cc4)cc23)ccc1O[C@@H]1CCN(CC(F)F)C1 [Example 31, (R)-2-((1-(2,2-difluoroethyl)pyrrolidin-3-yl)oxy)-5-(2-(4-morpholinophenyl)-1H-pyrrolo[2,3-b]pyridin-4-yl)benzonitrile]	19.1	59.2
N#Cc1cc(-c2ccnc3[nH]c(-c4ccc(N5CCOCC5)cc4)cc23)ccc1NC(=O)C1CC1 [Example 32, N-(2-cyano-4-(2-(4-morpholinophenyl)-1H-pyrrolo[2,3-b]pyridin-4-yl)phenyl)cyclopropanecarboxamide]	9.34	> 1000
COc1cc(C#N)cc(-c2ccnc3[nH]c(-c4ccc(N5CCOCC5)cc4)cc23)c1 [Example 33, 3-methoxy-5-(2-(4-morpholinophenyl)-1H-pyrrolo[2,3-b]pyridin-4-yl)benzonitrile]	14.5	> 1000
COc1ccc(-c2ccnc3[nH]c(-c4ccc(N5CCOCC5)cc4)cc23)cc1C#N [Example 34, 2-methoxy-5-(2-(4-morpholinophenyl)-1H-pyrrolo[2,3-b]pyridin-4-yl)benzonitrile]	89.8	> 1000
N#Cc1cc(-c2ccnc3[nH]c(C4=CCNC4)cc23)ccc1OC1CCOCC1 [Example 37, 5-(2-(2,5-dihydro-1H-pyrrol-3-yl)-1H-pyrrolo[2,3-b]pyridin-4-yl)-2-((tetrahydro-2H-pyran-4-yl)oxy)benzonitrile]	13.4	46.3
CNC(=O)c1cccc(-c2cc3c(-c4ccc(OC5CCOCC5)c(C#N)c4)ccnc3[nH]2)c1 [Example 40, 3-(4-(3-cyano-4-((tetrahydro-2H-pyran-4-yl)oxy)phenyl)-1H-pyrrolo[2,3-b]pyridin-2-yl)-N-methylbenzamide]	7.98	11.1
CNC(=O)c1ccc(-c2cc3c(-c4ccc(OC5CCOCC5)c(C#N)c4)ccnc3[nH]2)cc1 [Example 41, 4-(4-(3-cyano-4-((tetrahydro-2H-pyran-4-yl)oxy)phenyl)-1H-pyrrolo[2,3-b]pyridin-2-yl)-N-methylbenzamide]	3.08	5.59
N#Cc1cc(-c2ccnc3[nH]c(C4=CC5CCC4C5)cc23)ccc1OC1CCOCC1 (stereo not drawn) [Example 43, 5-(2-(bicyclo[2.2.1]hept-2-en-2-yl)-1H-pyrrolo[2,3-b]pyridin-4-yl)-2-((tetrahydro-2H-pyran-4-yl)oxy)benzonitrile]	434	> 1000
N#Cc1cc(-c2c(F)cnc3[nH]c(-c4ccc(N5CCOCC5)cc4)cc23)ccc1OC1CCOCC1 [Example 47, 5-(5-fluoro-2-(4-morpholinophenyl)-1H-pyrrolo[2,3-b]pyridin-4-yl)-2-((tetrahydro-2H-pyran-4-yl)oxy)benzonitrile]	4.05	17.5
N#Cc1cc(-c2ccnc3[nH]c(-c4ccc(N5CCOCC5)cc4)cc23)ccc1OC1CCOCC1 [Example 48, 5-(2-(4-morpholinophenyl)-1H-pyrrolo[2,3-b]pyridin-4-yl)-2-((tetrahydro-2H-pyran-4-yl)oxy)benzonitrile]	3.26	11.5
N#Cc1cc(-c2ccnc3[nH]c(-c4ccc(N5CCOCC5)cc4)cc23)ccc1N1CCCC1 [Example 49, 5-(2-(4-morpholinophenyl)-1H-pyrrolo[2,3-b]pyridin-4-yl)-2-(pyrrolidin-1-yl)benzonitrile]	7.05	> 78
N#Cc1cc(-c2ccnc3[nH]c(-c4ccc(N5CCOCC5)cc4)cc23)ccc1N1CC(O)C1 [Example 52, 2-(3-hydroxyazetidin-1-yl)-5-(2-(4-morpholinophenyl)-1H-pyrrolo[2,3-b]pyridin-4-yl)benzonitrile]	15.6	3.33
CC(C)(C)n1cc(-c2cc3c(-c4ccc(OC5CCOCC5)c(C#N)c4)ccnc3[nH]2)cn1 [Example 53, 5-(2-(1-(tert-butyl)-1H-pyrazol-4-yl)-1H-pyrrolo[2,3-b]pyridin-4-yl)-2-((tetrahydro-2H-pyran-4-yl)oxy)benzonitrile]	9.4	13.7
CS(=O)(=O)N1CCN(c2ccc(-c3cc4c(-c5ccc(OC6CCOCC6)c(C#N)c5)ccnc4[nH]3)cc2)CC1 [Example 55, 5-(2-(4-(4-(methylsulfonyl)piperazin-1-yl)phenyl)-1H-pyrrolo[2,3-b]pyridin-4-yl)-2-((tetrahydro-2H-pyran-4-yl)oxy)benzonitrile]	2.84	> 1000

More lines, now with the values ahead:

IC50 (TBK1) [nM]	IC50 (IKKε) [nM]	SMILES
16.2	64.9	N#Cc1cc(-c2ccnc3[nH]c(-c4ccc(N5CCOCC5)cc4)cc23)ccc1O[C@H]1CCN(C(=O)CO)C1 [Example 23, (S)-2-((1-(2-hydroxyacetyl)pyrrolidin-3-yl)oxy)-5-(2-(4-morpholinophenyl)-1H-pyrrolo[2,3-b]pyridin-4-yl)benzonitrile]
56.8	321	N#CCC(=O)N1CC[C@H](Oc2ccc(-c3ccnc4[nH]c(-c5ccc(N6CCOCC6)cc5)cc34)cc2C#N)C1 [Example 24, (S)-2-((1-(2-cyanoacetyl)pyrrolidin-3-yl)oxy)-5-(2-(4-morpholinophenyl)-1H-pyrrolo[2,3-b]pyridin-4-yl)benzonitrile]
11.7	119	N#Cc1cc(-c2ccnc3[nH]c(-c4ccc(N5CCOCC5)cc4)cc23)ccc1N [Example 28, 2-amino-5-(2-(4-morpholinophenyl)-1H-pyrrolo[2,3-b]pyridin-4-yl)benzonitrile]
14.8	242	N#Cc1cc(-c2ccnc3[nH]c(-c4ccc(N5CCOCC5)cc4)cc23)cnc1OC1CCOCC1 [Example 29, 5-(2-(4-morpholinophenyl)-1H-pyrrolo[2,3-b]pyridin-4-yl)-2-((tetrahydro-2H-pyran-4-yl)oxy)nicotinonitrile]
70.7	135	CN(C)CC(=O)N1CC[C@@H](Oc2ccc(-c3ccnc4[nH]c(-c5ccc(N6CCOCC6)cc5)cc34)cc2C#N)C1 [Example 30, (R)-2-((1-(2-(dimethylamino)acetyl)pyrrolidin-3-yl)oxy)-5-(2-(4-morpholinophenyl)-1H-pyrrolo[2,3-b]pyridin-4-yl)benzonitrile]
38.4	79	CC(C)(C)OC(=O)N1CC=C(c2cc3c(-c4ccc(OC5CCOCC5)c(C#N)c4)ccnc3[nH]2)C1 [Example 36, tert-butyl 3-(4-(3-cyano-4-((tetrahydro-2H-pyran-4-yl)oxy)phenyl)-1H-pyrrolo[2,3-b]pyridin-2-yl)-2,5-dihydro-1H-pyrrole-1-carboxylate]
32.5	76.8	N#Cc1cc(-c2ccnc3[nH]c(-c4cc5ccccc5[nH]4)cc23)ccc1OC1CCOCC1 [Example 38]
10.1	10.7	N#Cc1cc(-c2ccnc3[nH]c(-c4cccc(CN5CCOCC5)c4)cc23)ccc1OC1CCOCC1 [Example 39, 5-(2-(3-(morpholinomethyl)phenyl)-1H-pyrrolo[2,3-b]pyridin-4-yl)-2-((tetrahydro-2H-pyran-4-yl)oxy)benzonitrile]
3.75	6.42	CS(=O)(=O)c1ccc(-c2cc3c(-c4ccc(OC5CCOCC5)c(C#N)c4)ccnc3[nH]2)cc1 [Example 42, 5-(2-(4-(methylsulfonyl)phenyl)-1H-pyrrolo[2,3-b]pyridin-4-yl)-2-((tetrahydro-2H-pyran-4-yl)oxy)benzonitrile]
> 1000	> 1000	CC(C)(C)OC(=O)n1ccc2cc(-c3cc4c(-c5ccc(OC6CCOCC6)c(C#N)c5)ccnc4[nH]3)ccc21 [Example 44, tert-butyl 5-(4-(3-cyano-4-((tetrahydro-2H-pyran-4-yl)oxy)phenyl)-1H-pyrrolo[2,3-b]pyridin-2-yl)-1H-indole-1-carboxylate]
32	32.2	N#Cc1cc(-c2ccnc3[nH]c(-c4ccc5[nH]ccc5c4)cc23)ccc1OC1CCOCC1 [Example 45, 5-(2-(1H-indol-5-yl)-1H-pyrrolo[2,3-b]pyridin-4-yl)-2-((tetrahydro-2H-pyran-4-yl)oxy)benzonitrile]
651	449	N#Cc1cc(-c2ccnc3[nH]c(C4CC4)cc23)ccc1OC1CCOCC1 [Example 50, 5-(2-cyclopropyl-1H-pyrrolo[2,3-b]pyridin-4-yl)-2-((tetrahydro-2H-pyran-4-yl)oxy)benzonitrile]
3.54	2.98	N#Cc1cc(-c2ccnc3[nH]c(-c4cnn(C5CCOCC5)c4)cc23)ccc1OC1CCOCC1 [Example 51, 5-(2-(1-(tetrahydro-2H-pyran-4-yl)-1H-pyrazol-4-yl)-1H-pyrrolo[2,3-b]pyridin-4-yl)-2-((tetrahydro-2H-pyran-4-yl)oxy)benzonitrile]
